We go through 26 compounds from patent US11884675B2, “Heterocyclic compounds as triggering receptor expressed on myeloid cells 2 agonists and methods of use” (AMGEN INC., priority 2020, dated 2024).

What is called EC50 is the midpoint of the concentration-response curve.

The test deals with hTREM2 (Homo sapiens, UniProt Q9NZC2). Kind of test: TREM2 agonist potency by Syk phosphorylation (AlphaLisa) in HEK293T-hTREM2 cells, used for Examples 306-429. Format: cell-based. More on the design: expressed in transfected cells; host or cells: HEK293T (HEK293T-hTREM2 cells). Particulars: HEK293 Cells. As to the method: In vitro Measurement of Triggering Receptor Expressed on Myeloid Cells 2 activity using cellular phosphorylation of Spleen Tyrosine Kinase (“Syk”) Assays used for Examples 306-429
hTREM2, sequence (Q9NZC2 19-230): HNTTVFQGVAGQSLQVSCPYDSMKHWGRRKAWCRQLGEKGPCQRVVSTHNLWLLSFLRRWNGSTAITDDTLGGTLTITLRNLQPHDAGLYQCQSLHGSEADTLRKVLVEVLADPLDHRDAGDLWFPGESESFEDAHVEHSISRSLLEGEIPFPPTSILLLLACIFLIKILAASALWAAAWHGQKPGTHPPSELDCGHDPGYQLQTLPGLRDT
hTREM2, sequence (O43914 22-113 partner): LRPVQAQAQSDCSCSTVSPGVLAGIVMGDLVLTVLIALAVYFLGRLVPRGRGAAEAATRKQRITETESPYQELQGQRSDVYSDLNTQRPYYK
Measurement of TREM2 agonist potency was done using a HEK cell line expressing human TREM2 and DAP12 (HEK293T-hTREM2 cells). Binding of small molecules to, and activation of, TREM2 increases the phosphorylation of Syk. The resultant levels of Syk phosphorylation were measured using a commercial AlphaLisa reagent kit. To perform the assay, HEK-hTREM2 cells were plated at 14,000 cells per well in a 384 well plate, in 25 μL, of complete growth media and incubated at 37° C., 5% CO2 for 20-24 hours. Prior to the assay, test compounds were diluted in the 384 well plates in assay buffer and allowed to equilibrate for 30 minutes. Growth media was removed from cell plates by inversion on blotting paper, and 25 μL of test compounds in assay buffer was added to cells. Cells were incubated for 45 minutes at room temperature. After 45 minutes, assay buffer was removed and 10 μL of lysis buffer was added. Plates were shaken for 20 minutes at 350 RPM at room temperature. After complete lysis, AlphaLisa reagents were added to the lysate, and fluourescence intensity was measured using a Perkin Elmer Envision plate reader. Intensities were used to generate a standard curve, and % activation was calculated. Curve fitting was performed using Prism v9 software, log(agonist) vs response-variable slope (four parameters), and EC50s were calculated from the curve fit.
The results presented in Table 20 have been generated with the in vitro assay described above for Examples 306-429. This assay may be used to test any of the compounds described herein to assess and characterize a compound's ability to act as an agonist of TREM2.
(Alpha assays give light when donor and acceptor beads are brought close together.)

Compound `Cc1cc(C2CN(c3cc4nc(C)cnc4c(C45CC(C(F)(F)F)(C4)C5)n3)CCO2)ccn1` (centres unmarked) [Example 376, 2-(2-methyl-4-pyridyl)-4-[2-methyl-5-[3-(trifluoromethyl)-1-bicyclo[1.1.1]pentanyl]pyrido[3,4-b]pyrazin-7-yl]morpholine] gave an EC50 of 0.5 to 3 µM.

For the compound `Cc1nc2nc(N3C[C@@H](C)O[C@@H](c4cnn(C5CC5)c4)C3)nc(-c3ccc(Cl)cc3F)c2nc1C` (racemic) [Example 373, 4-(4-(4-chloro-2-fluorophenyl)-6,7-dimethylpteridin-2-yl)-2-(1-cyclopropyl-1H-pyrazol-4-yl)-6-methylmorpholine], the EC50 was no more than 0.05 µM.

Turning to `Cc1cnc2c(C34CC(C(F)(F)F)(C3)C4)nc(N3CCO[C@H](c4cnn(C5CC5)c4)C3)nc2n1` [Example 359, (R)-2-(1-cyclopropyl-1H-pyrazol-4-yl)-4-(7-methyl-4-(3-(trifluoromethyl)bicyclo[1.1.1]pentan-1-yl)pteridin-2-yl)morpholine], the EC50 was no more than 0.05 µM.

For the compound `Cc1cc(C2CC(c3nc(-c4ccc(C(F)(F)F)nc4)c4ccc(C)nc4n3)CCO2)ccn1` (centres unmarked) [Example 324, 7-methyl-2-(2-(2-methylpyridin-4-yl)tetrahydro-2H-pyran-4-yl)-4-(6-(trifluoromethyl)pyridin-3-yl)pyrido[2,3-d]pyrimidine], the half-maximal effective concentration (EC50) fell in the range of 0.05 to 0.5 µM.

As to `Cc1nc2nc([C@@H]3CCO[C@@H](c4cnn(C5CC5)c4)C3)nc(-c3ccc(C(F)(F)F)cc3F)c2nc1C` [Example 412, 2-((2R,4R)-2-(1-cyclopropyl-1H-pyrazol-4-yl)tetrahydro-2H-pyran-4-yl)-4-(2-fluoro-4-(trifluoromethyl)phenyl)-6,7-dimethylpteridine], the EC50 lay in the range of 0.05 to 0.5 µM.

Compound `Cc1cnc2c(-c3ccc(F)cc3F)nc([C@H]3CCO[C@@H](c4cnn(C5CC5)c4)C3)nc2n1` [Example 330, 2-[(2R,4S)-2-(1-cyclopropylpyrazol-4-yl)tetrahydropyran-4-yl]-4-(2,4-difluorophenyl)-7-methyl-pteridine] registered an EC50 of no more than 0.05 µM.

For the compound `Cc1cc([C@H]2C[C@H](c3cc4nc(C)c(C)nc4c(-c4ccc(C(F)(F)F)nc4)n3)CCO2)ccn1` (racemic) [Example 306], the EC50 is 0.05 to 0.5 µM.

Turning to `Cc1cnc2c(-c3ccc(F)cc3F)nc(N3C[C@@H](C)O[C@@H](c4cnn(C5CC5)c4)C3)cc2n1` (racemic) [Example 362, 2-(1-cyclopropyl-1H-pyrazol-4-yl)-4-(5-(2,4-difluorophenyl)-2-methylpyrido[3,4-b]pyrazin-7-yl)-6-methylmorpholine], the EC50 is no more than 0.05 µM.

Take `Cc1cc([C@@H]2CN(c3nc(-c4ccc(Cl)c(F)c4F)c4nc(C)c(C)nc4n3)CCO2)ccn1` [Example 364, (R)-4-(4-(4-chloro-2,3-difluorophenyl)-6,7-dimethylpteridin-2-yl)-2-(2-methylpyridin-4-yl)morpholine]: the EC50 is no more than 0.05 µM.

The compound `Cc1nc2cc(N3C[C@H](C)O[C@@H](c4cnn(C5CC5)c4)C3)nc(C34CC(C(F)(F)F)(C3)C4)c2nc1C` (racemic) [Example 378, 2-(1-cyclopropylpyrazol-4-yl)-4-[2,3-dimethyl-5-[3-(trifluoromethyl)-1-bicyclo[1.1.1]pentanyl]pyrido[3,4-b]pyrazin-7-yl]-6-methyl-morpholine] displayed an EC50 of 0.05 to 0.5 µM.

Regarding `Cc1ccc2c(-c3ccc(F)cc3F)nc([C@H]3C[C@@H](C)O[C@@H](c4cnn(C5CC5)c4)C3)nc2n1` [Example 416, 2-((2R,4S,6R)-2-(1-cyclopropyl-1H-pyrazol-4-yl)-6-methyltetrahydro-2H-pyran-4-yl)-4-(2,4-difluorophenyl)-7-methylpyrido[2,3-d]pyrimidine], the concentration giving a half-maximal response (EC50) was in the range of 0.05 to 0.5 µM.

In turn, `Cc1nc2cc(N3CCO[C@H](c4cnn(C5CC5)c4)C3)nc(-c3ccc(C(F)(F)F)nc3)c2nc1C` [Example 385, (2R)-2-(1-cyclopropylpyrazol-4-yl)-4-[2,3-dimethyl-5-[6-(trifluoromethyl)-3-pyridyl]pyrido[3,4-b]pyrazin-7-yl]morpholine] registered an EC50 of 0.05 to 0.5 µM.

Compound `Cc1nc2cc(N3CCOC(c4cnn(C5CC5)c4)C3)nc(-c3ccc(C(F)(F)F)nc3)c2nc1C` (centres unmarked) [Example 349, 2-(1-cyclopropyl-1H-pyrazol-4-yl)-4-(2,3-dimethyl-5-(6-(trifluoromethyl)pyridin-3-yl)pyrido[3,4-b]pyrazin-7-yl)morpholine] displayed a concentration giving a half-maximal response (EC50) of no more than 0.05 µM.

For the compound `Cc1cnc2c(-c3ccc(F)cc3F)nc(N3CCOC(c4cnn(C5CC5)c4)C3)cc2n1` (centres unmarked) [Example 341, 2-(1-cyclopropyl-1H-pyrazol-4-yl)-4-(5-(2,4-difluorophenyl)-2-methylpyrido[3,4-b]pyrazin-7-yl)morpholine], the EC50 is no more than 0.05 µM.

`Cc1cc(C2CN(c3nc(-c4ccc(Cl)c(F)c4F)c4nc(C)c(C)nc4n3)CCO2)ccn1` (centres unmarked) [Example 337, 4-(4-(4-chloro-2,3-difluorophenyl)-6,7-dimethylpteridin-2-yl)-2-(2-methylpyridin-4-yl)morpholine] registered an EC50 of no more than 0.05 µM.

Regarding `Cc1ccc2c(C34CC(C(C)C)(C3)C4)nc([C@H]3CCO[C@@H](c4cnn(C5CC5)c4)C3)nc2n1` [Example 428, 2-((2R,4S)-2-(1-cyclopropyl-1H-pyrazol-4-yl)tetrahydro-2H-pyran-4-yl)-4-(3-isopropylbicyclo[1.1.1]pentan-1-yl)-7-methylpyrido[2,3-d]pyrimidine], the EC50 was 0.05 to 0.5 µM.

`Cc1cnc2c(-c3ccc(F)cc3F)nc(N3C[C@@H](C)O[C@@H](c4cnn(C5CC5)c4)C3)nc2n1` [Example 420, (2S,6R)-2-(1-cyclopropyl-1H-pyrazol-4-yl)-4-(4-(2,4-difluorophenyl)-7-methylpteridin-2-yl)-6-methylmorpholine]: the EC50 was no more than 0.05 µM.

Compound `Cc1nc2nc(N3C[C@@H](C)O[C@@H](c4cnn(C5CC5)c4)C3)nc(-c3ccc(Cl)cc3F)c2nc1C` [Example 425, (2S,6R)-4-(4-(4-chloro-2-fluorophenyl)-6,7-dimethylpteridin-2-yl)-2-(1-cyclopropyl-1H-pyrazol-4-yl)-6-methylmorpholine] yielded a concentration giving a half-maximal response (EC50) of no more than 0.05 µM.

Consider `COc1cc(C2CN(c3nc4nc(C)c(C)nc4c([C@]45C[C@](C(F)(F)F)(C4)C5)n3)CCO2)ccn1` (mixture of isomers) [Example 318, 4-(6,7-dimethyl-4-(3-(trifluoromethyl)bicyclo[1.1.1]pentan-1-yl)pteridin-2-yl)-2-(2-methoxypyridin-4-yl)morpholine], for which the EC50 is no more than 0.05 µM.

`Cc1nc2nc(N3C[C@@H](C)O[C@H](c4cnn(C5CC5)c4)C3)nc(C34CC(C(F)(F)F)(C3)C4)c2nc1C` [Example 409, (2R,6R)-2-(1-cyclopropyl-1H-pyrazol-4-yl)-4-(6,7-dimethyl-4-(3-(trifluoromethyl)bicyclo[1.1.1]pentan-1-yl)pteridin-2-yl)-6-methylmorpholine] showed an EC50 of 0.05 to 0.5 µM.

Compound `Cc1cnc2c(-c3ccc(C(F)(F)F)nc3)nc(N3CCOC(c4cnn(C5CC5)c4)C3)cc2n1` (centres unmarked) [Example 340, 2-(1-cyclopropyl-1H-pyrazol-4-yl)-4-(2-methyl-5-(6-(trifluoromethyl)pyridin-3-yl)pyrido[3,4-b]pyrazin-7-yl)morpholine] showed a 50% effective concentration (EC50) of 0.05 to 0.5 µM.

In the case of `Cc1nc2nc(N3C[C@H](C)O[C@@H](c4cnn(C5CC5)c4)C3)nc(C34CC(C(F)(F)F)(C3)C4)c2nc1C` [Example 408, (2S,6S)-2-(1-cyclopropyl-1H-pyrazol-4-yl)-4-(6,7-dimethyl-4-(3-(trifluoromethyl)bicyclo[1.1.1]pentan-1-yl)pteridin-2-yl)-6-methylmorpholine], the EC50 was no more than 0.05 µM.

For `Cc1cc(C2CN(c3cc4nc(C)cnc4c(-c4ccc(F)cc4F)n3)CCO2)ccn1` (centres unmarked) [Example 313, 4-(5-(2,4-difluorophenyl)-2-methylpyrido[3,4-b]pyrazin-7-yl)-2-(2-methylpyridin-4-yl)morpholine], the EC50 is no more than 0.05 µM.

For `Cc1nc2nc(N3C[C@@H](c4cnn(C5CC5)c4)O[C@@H](C)C3)nc(-c3ccc(F)cc3F)c2nc1C` [Example 426, (2R,6S)-2-(1-cyclopropyl-1H-pyrazol-4-yl)-4-(4-(2,4-difluorophenyl)-6,7-dimethylpteridin-2-yl)-6-methylmorpholine], the concentration giving a half-maximal response (EC50) is no more than 0.05 µM.

For the compound `Cc1nc2nc(N3CC(C)OC(c4cnn(C5CC5)c4)C3)nc(C34CC(C(F)(F)F)(C3)C4)c2nc1C` (centres unmarked) [Example 356, 2-(1-cyclopropyl-1H-pyrazol-4-yl)-4-(6,7-dimethyl-4-(3-(trifluoromethyl)bicyclo[1.1.1]pentan-1-yl)pteridin-2-yl)-6-methylmorpholine], the 50% effective concentration (EC50) was no more than 0.05 µM.

Regarding `Cc1cc(C2CN(c3cc4nc(C)cnc4c(-c4ccc(C(F)(F)F)nc4)n3)CCO2)ccn1` (centres unmarked) [Example 311, 4-(2-methyl-5-(6-(trifluoromethyl)pyridin-3-yl)pyrido[3,4-b]pyrazin-7-yl)-2-(2-methylpyridin-4-yl)morpholine], the EC50 was in the range of 0.05 to 0.5 µM.
